Earlier results as cited in patent US20050215536A1, “Sequential SPRM/ progestin treatment” (priority 2004, published 2005).

What was measured:
[1] = premenopausal women
[2] = target: T1, progesterone receptor (Oryctolagus cuniculus, UniProt P06186); details: for McPhail score: rabbit model, scale of 0-4; for agonist activity in the McPhail bioassay: rabbits
T1 construct: SPRMs score lower than progesterone in the McPhail bioassay in rabbits; from tissue; host or cells: live rabbit
T1 sequence (P06186 1-930): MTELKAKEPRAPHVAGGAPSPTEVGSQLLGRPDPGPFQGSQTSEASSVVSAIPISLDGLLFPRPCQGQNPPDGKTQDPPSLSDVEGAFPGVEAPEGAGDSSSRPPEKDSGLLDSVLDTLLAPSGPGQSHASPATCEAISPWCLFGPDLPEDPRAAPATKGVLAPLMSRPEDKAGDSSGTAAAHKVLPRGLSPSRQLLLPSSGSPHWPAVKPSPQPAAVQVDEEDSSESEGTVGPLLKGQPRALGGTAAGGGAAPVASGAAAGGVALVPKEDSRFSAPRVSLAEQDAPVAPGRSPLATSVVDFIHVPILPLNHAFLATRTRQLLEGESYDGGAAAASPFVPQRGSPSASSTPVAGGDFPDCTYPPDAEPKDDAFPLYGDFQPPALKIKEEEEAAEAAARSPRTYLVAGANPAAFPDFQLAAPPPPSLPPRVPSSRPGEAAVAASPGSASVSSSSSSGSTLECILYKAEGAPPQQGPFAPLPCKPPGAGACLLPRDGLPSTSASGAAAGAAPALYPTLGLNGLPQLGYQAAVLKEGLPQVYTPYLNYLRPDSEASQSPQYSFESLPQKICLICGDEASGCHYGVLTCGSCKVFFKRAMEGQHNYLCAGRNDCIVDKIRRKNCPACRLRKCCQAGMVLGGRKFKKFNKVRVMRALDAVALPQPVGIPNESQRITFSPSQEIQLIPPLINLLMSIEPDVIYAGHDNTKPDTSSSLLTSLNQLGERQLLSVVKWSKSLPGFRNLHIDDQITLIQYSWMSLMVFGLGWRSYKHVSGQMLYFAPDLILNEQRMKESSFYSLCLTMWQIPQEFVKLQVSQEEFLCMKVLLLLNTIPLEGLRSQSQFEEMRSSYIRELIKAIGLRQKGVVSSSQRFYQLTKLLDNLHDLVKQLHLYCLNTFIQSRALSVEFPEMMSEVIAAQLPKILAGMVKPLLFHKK

For `COC[C@]1(OC)CC[C@H]2[C@@H]3CCC4=CC(=O)CCC4=C3[C@@H](c3ccc(/C=N/O)cc3)C[C@@]21C` [J867, 4-[17β-Methoxy-17α-(methoxymethyl)-3-oxoestra-4,9-dien-11β-yl]benzaldehyd-(1E)-oxim], which “withdrawal bleeding (start of spontaneous menstrual cycle), time after stopping the SPRM treatment” value ([1]; all subjects, latest occurrence) is on record?
The value was “up to 90 days”.

What about the “resumption of menstruation, time after cessation of treatment” value ([1]; majority of subjects) of the same molecule?
The value was no more than 30 days.

For `CC#C[C@]1(O)CC[C@H]2[C@@H]3CCC4=CC(=O)CCC4=C3[C@@H](c3ccc(N(C)C)cc3)C[C@@]21C` [RU486, mifepristone], which McPhail score [2] is on record?
Its McPhail score is “less than 0.5”.

What about the “agonist activity in the McPhail bioassay” value [2] of the same molecule?
Its value is “do not show any agonist activity”.

With `CN(C)c1ccc([C@H]2C[C@]3(C)[C@@H](CC[C@]3(O)CCCO)[C@@H]3CCC4=CC(=O)CCC4=C32)cc1` [onapristone] as the molecule, how does the “agonist activity in the McPhail bioassay” value [2] read?
The value was “do not show any agonist activity”.

With `CC(=O)[C@H]1CC[C@H]2[C@@H]3CCC4=CC(=O)CC[C@]4(C)[C@H]3CC[C@]12C` [progesterone] as the molecule, how does the McPhail score [2] read?
Its McPhail score is 4.
